Assay results as given in patent US20060293231A1, “Method for enhancing bone formation” (priority 2004, published 2006).
Several values for one entry are separate records, joined by “and”; a condition that tells them apart may be missing. Equal entries are not always repeated. Entries after “also recorded” stand apart in the source; their conditions may differ.

Assays:
Format in all cases: cell-based, human
[1] = tested on: platelet-rich plasma (PRP); assay: Clotting time of platelet-rich plasma (visual)
Experimental: (§1) PRP composites were prepared by mixing PRP and TRAP with bone substitutes commonly utilized in the clinical setting. Twenty four-well plates (Corning Inc., Corning, N.Y.) were coated with 1% bovine serum albumin (Sigma, St. Louis, Mo.) and incubated for 1.5 hours at 37° C. Sterilized BioOss (25 mg, 0.5-1.0 mm), AlloGro (25 mg), and 45S5 Bioactive Glass (25 mg, […]) were uniformly dispersed within the wells. Fresh PRP (0.5 ml) aliquots were then dispensed into the pre-coated 24-well plates, and 30 μl of 10% calcium chloride solution were added to each well. Experiments were performed in triplicate (n=3) with the addition of bovine thrombin (75 units) or thrombin receptor activating peptide (TRAP, H2N-Ser-Phe-Leu-Leu Arg-Asn-NH2). TRAP was used to clot PRP for all bone substitute groups examined. • Growth Factor Release—Effects of Bone Substitute and Incubation Mode
(§2) PRP (0.5 mL) aliquots were dispensed into 24-well plates precoated with 1% bovine serum albumin (Sigma, St Louis, Mo.). Thirty microliters of 10% CaCl2 solution (American Reagent Laboratories, Shirley, N.Y.) were added to each well. Experiments were performed in triplicate (n=3) with the addition of bovine thrombin (30, 100, 300 units; GenTrac, Middleton, Wis.) or TRAP (10, 50, 100 μmol/L; Bachem Bioscience Inc, King of Prussia, Pa.). At 30 minutes, if still attached, the clots were gently released from the sides of the culture well with a pipette tip. PRP prepared with CaCl2 solution […] the addition of thrombin or TRAP served as the control group.
(§3) Clotting times were monitored by visualization. Clot retraction was determined by measuring the clot diameter at 1, 2, 4, and 24 hours, and the value was normalized against the well diameter. • Preparation of Platelet-Rich Plasma-Bone Substitute Composites with Thrombin Receptor Agonist Peptide-6
(§4) After the optimization of TRAP concentration, experiments were repeated with the addition of 25 or 50 mg of bone substitutes. To minimize nonspecific binding, the culture well (Corning Inc, Corning, N.Y.) was precoated with 1% bovine serum albumin (Sigma) and incubated for 1.5 hours at 37° C. Sterilized BioOss (25 mg, 0.5 to 1.0 mm; Osteohealth, Shirley, N.Y.), AlloGro (25 mg; Ceramed, Lakewood, Colo.), and 45S5 Bioactive Glass (25 mg, 300 μm; Mo-Sci, Rolla, Minn.) were uniformly dispersed within the wells. Fresh PRP (0.5 mL) aliquots were then dispensed into the precoated 24-well plates, and 30 μl of 10% CaCl2 solution (American Reagent Laboratories, Shirley, N.Y.) was added to each well. Experiments were performed in triplicate (n=3) with the addition of TRAP (H2N-Ser-Phe-Leu-Leu-Arg-Asn-NH2) to the wells containing bone substitutes. • Growth Factor Release from Platelet-Rich Plasma Prepared with Thrombin or Thrombin Receptor Agonist Peptide-6

[2] = tested on: platelet-rich plasma (PRP); assay: PRP clot retraction (clot diameter normalized against well diameter; released fluid volume)
Experimental: as §2, §3, §4
(§5) The temporal release of growth factors was examined as a function of time and mode of PRP preparation. Specifically, the PRP clotted with thrombin or TRAP was allowed to gel, and all samples were incubated at 37° C. in a humidified environment for up to 14 days. The volume of fluid released from the clot was measured. Growth factor release was assessed at 1, 3, 7, and 14 days. All collected supernatant samples were stored at −70° C. before analysis. • Quantification of Platelet-Derived Growth Factor and Transforming Growth Factor-β

PDGF-AB = PDGF-AB release from PRP clots and PRP composites (sandwich enzyme immunoassay of supernatant); conditions: for effect of media exchange on PDGF release: Group 1 (dynamic mode) versus Group 2 (static mode, less frequent exchange)
Experimental: as §1
(§6) The temporal release of growth factors was examined as a function of bone substitute and mode of sample incubation. Specifically, the PRP composites were allowed to clot, and all samples were incubated at 37° C. and humidified environment for up to 14 days. The media were exchanged for all groups at 1 day after incubation. The volume of fluid released from the clot was measured and equal volume of fresh Dulbecco's Modification of Eagle's Medium (DMEM, Mediatech, Herdon, Va.) without serum was added back to each well. Subsequently, in the dynamic incubation mode (Group 1), the fluid released from the clot was collected and equal volume of fresh DMEM was added back into the well at 3, 7, and 14 days. In the static mode (Group 2), the media was exchanged only at the designated time points (7 and 14 days). All collected supernatant samples were stored at −70° C. prior to analyses. • Quantification of PDGF and TGFβ
Supernatants collected from all time points for both Group 1 and 2 were assayed for PDGF-AB and TGFβ content using diagnostic kits from R & D Systems (Minneapolis, Minn.). Both assays are based on a sandwich enzyme immunoassay technique. The PDGF-AB assay uses a pre-coated microtiter plate with a monoclonal antibody to PDGF-AA. Preparation and dilution of samples and standards were performed as directed by the manufacturer. Both the standards and the samples were incubated for 3 hours at room temperature. The plate was washed with buffer and a conjugated antibody to PDGF-BB was added to the wells and incubated at room temperature for an additional 1 hour. The plate was then washed and substrate added for 20 minutes at room temperature. The reaction was stopped and absorbance was determined at 450 nm using a spectrophotometer (SpectraFluor Plus, Tecan, Maennedorf, Switzerland). A standard curve was generated and the PDGF-AB levels (pg/ml) of each sample were determined. The total amount of growth factor was calculated based on the amount of supernatant obtained after clot retraction.
as §5
Supernatants were assayed for PDGF-AB and TGFβ content using diagnostic kits from R & D Systems (Minneapolis, Minn.). Both assays are based on a sandwich enzyme immunoassay technique. The PDGF-AB assay used a precoated microtiter plate with a monoclonal antibody to PDGF-AA. Preparation and dilution of samples and standards were performed as directed by the manufacturer. Both the standards and the samples were incubated for 3 hours at room temperature. […]

TGFβ = TGFβ release from PRP clots and PRP composites (enzyme immunoassay of supernatant); conditions: for TGFβ release/retention post clotting, comparison between groups: day 1 post clotting, p<0.05
Experimental: as §1, §6
TGFβ was assayed with a similar enzyme immunoassay technique. A dilution series of TGFβ standards was prepared in 100 μl volumes in 96-well microtiter plates coated with TGFβ receptor Type II. The sample supernatants (0.025 ml) obtained from PRP composites were diluted with 0.075 ml of phosphate buffer saline solution. The samples were then activated with 0.1 ml of 1.0 N HCl incubated at room temperature for 10 minutes, neutralized by an addition of 0.1 ml of 1.2 N NaOH/0.5 M HEPES (N-[2-hydroxyethyl] piperazine-N-[2-ethanesulfonic acid]). The supernatant fractions were then incubated for 3 hours at room temperature. The wells were then washed and enzyme-conjugated polyclonal antibody to TGFβ1 was added and allowed to incubate for 1.5 hours at room temperature. The reaction was stopped and absorbance was measured at 450 nm using a spectrophotometer (SpectraFluor Plus, Tecan, Maennedorf, Switzerland). A standard curve was generated and the TGFβ levels (pg/ml) of each sample were determined. The total amount of growth factors was calculated based on the amount of supernatant obtained after clot retraction. • Statistical Analyses
as §5
TGFβ was assayed with a similar enzyme immunoassay technique. A dilution series of TGFβ standards were prepared in 96-well microtiter plates coated with TGFβ receptor Type II. The sample supernatants (0.025 mL) obtained from PRP composites were diluted with 0.075 mL of phosphate-buffered saline solution. […]

Question: “H2N-Ser-Phe-Leu-Leu-Arg-Asn-NH2 [TRAP, reference compound]” was tested. Which “time for the clot to completely solidify” value ([1]; Example 1, TRAP at 100 μm) did it give?
Answer: 14.5 min

Question: What about the “time for the clot to completely solidify” value ([1]; Example 2, TRAP at 100 μmol/L) of the same substance?
Answer: 9.25 min

Question: And the “decrease in the clot diameter” value ([2]; TRAP 50 μmol/L)?
Answer: 15%

Question: And the “decrease in the clot diameter” value ([2]; TRAP 100 μmol/L)?
Answer: 15%

Question: What about the PDGF-AB released (PDGF-AB; Example 1, at 7 days) of the same substance?
Answer: 11,624 pg

Question: What about the PDGF-AB released (PDGF-AB; Example 1, day 1) of the same substance?
Answer: 20,642 pg

Question: What about the PDGF-AB released (PDGF-AB; Example 2, at 7 days, mean±SD) of the same substance?
Answer: 2,797.6±612.0 pg

Question: And the PDGF-AB released (PDGF-AB; Example 2, day 1, mean±SD)?
Answer: 20,642±1,170.0 pg

Question: And the “effect of media exchange on PDGF release” value (PDGF-AB)?
Answer: no statistically significant effects; also recorded: No significant difference

Question: What about the “TGFβ retained compared to the thrombin group” value (TGFβ; Example 1, time not stated (day 1 context)) of the same substance?
Answer: 39.2%

Question: What about the “TGFβ retained, more than the thrombin group” value (TGFβ; Example 2, at 72 hours) of the same substance?
Answer: 39.2%

Question: And the “TGFβ release/retention post clotting, comparison between groups” value (TGFβ)?
Answer: significantly lower levels

Question: How did the “time to complete polymerization of PRP” value ([1]; Example 1, 30 units of thrombin added to 0.5 ml PRP mixture) turn out when “thrombin: bovine thrombin (GenTrac), serine protease used as standard PRP clotting agent” was run?
Answer: 6 min

Question: And the “time to clot formation” value ([1]; Example 1, 100 units thrombin, 0.5 ml PRP)?
Answer: 1.25 min

Question: What about the “time to clot formation” value ([1]; Example 1, 300 units thrombin, 0.5 ml PRP) of the same substance?
Answer: 1.25 min

Question: And the “time to complete polymerization of PRP” value ([1]; Example 2, 30 units of thrombin added to 0.5 mL PRP mixture)?
Answer: 6 min

Question: What about the “time to clot formation” value ([1]; Example 2, 100 units thrombin) of the same substance?
Answer: 3.25 min

Question: What about the clot retraction ([2]; 30 units of thrombin) of the same substance?
Answer: 34%

Question: What about the “shrinkage of the clot (clot retraction)” value ([2]; 100 units of thrombin, all time points) of the same substance?
Answer: 43%

Question: And the “volume of supernatant released from the clot” value ([2]; all time points, comparison between groups)?
Answer: largest release volume

Question: What about the clot retraction ([2]; at 24 hours, TRAP with 25 mg bone substitute, thrombin 100 units) of the same substance?
Answer: 56%±3% and 56%

Question: And the PDGF-AB released (PDGF-AB; Example 1, at 7 days)?
Answer: 5,068 pg

Question: What about the PDGF-AB released (PDGF-AB; Example 1, day 1) of the same substance?
Answer: 32,526 pg

Question: What about the PDGF-AB released (PDGF-AB; Example 2, at 7 days, mean±SD) of the same substance?
Answer: 1,738.2 ±443.0 pg

Question: And the PDGF-AB released (PDGF-AB; Example 2, day 1, mean±SD)?
Answer: 32,526±6,752.4 pg

Question: And the “effect of media exchange on PDGF release” value (PDGF-AB)?
Answer: No significant difference

Question: And the “effect of media exchange on PDGF release” value (PDGF-AB; listed as Thrombin)?
Answer: no statistically significant effects

Question: What about the “PDGF-AB release, more than the TRAP group” value (PDGF-AB; day 1) of the same substance?
Answer: approximately 36%

Question: What about the “TGFβ release from the clot after 14 days” value (TGFβ; after 14 days) of the same substance?
Answer: all of the TGFβ present in the original PRP thrombin clots had been released; also recorded: all the TGFβ in thrombin clots was released

Question: And the “TGFβ release/retention post clotting, comparison between groups” value (TGFβ)?
Answer: highest amount

Question: And the “TGFβ already released from the clot” value (TGFβ; within 24 hours, of total TGFβ in original PRP)?
Answer: over 81.4%
